Source: patent publication US11407765B2, “Tetracyclic heteroaryl compounds” (AstraZeneca AB, priority 2018, dated 2022)
Where two headings read alike, the source gives them in different places.

Legend:
KRasG12C [1] = biological target: T1, KRasG12C (Homo sapiens, UniProt P01116, G12C); experiment: KRasG12C functional assay (HTRF, SOS-mediated nucleotide exchange / Raf RBD binding); assay type: biochemical; details: 4 hrs incubation with GDP loaded biotinylated KRasG12C, single experiment or average of two or more
T1 construct: biotin (biotinylated); made in house
T1 sequence (P01116 1-188 isoform P01116-2 G12C): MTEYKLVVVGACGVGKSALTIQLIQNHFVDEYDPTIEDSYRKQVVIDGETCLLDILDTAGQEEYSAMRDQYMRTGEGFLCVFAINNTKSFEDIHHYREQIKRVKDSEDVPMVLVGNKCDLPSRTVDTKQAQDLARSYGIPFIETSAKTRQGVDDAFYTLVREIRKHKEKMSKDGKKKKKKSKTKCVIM
Procedure: KRasG12C Functional Assay
All enzyme and substrate solutions were prepared in assay buffer containing 20 mM HEPES (pH 7.5), 5 mM MgCl2, 150 mM NaCl, and 0.01% Tween 20. […] In a separate mix 20 nM GST-Raf Ras binding domain (GST-Raf RBD, purified in house) and 4 μg/ml anti-GST XL665 antibody (Cisbio) was prepared in assay buffer containing 50 mM Potassium Fluoride and 0.05 mg/ml BSA and equilibrated for 4 hours before adding 0.6 μM Guanosine 5′-[γ-thio]triphosphate (GTPγS, Sigma) and 0.08 μM SOS (purified in house). 5 μl of the GST-RAF RBD mix was then dispensed into each well of the assay plate. […] This is detected simultaneously via the specific binding interaction between active GTPγS KRas^G12C with GST-Raf RBD which brings the europium and XL665 into close proximity enabling an increased FRET signal to be detected on a Pherastar (BMG) plate reader equipped with the HTRF filter module. […] IC50 values were calculated from normalised dose-response response FRET data curve fitted in Genedata screener (Basel, Switzerland).

KRasG12C [2] = biological target: T1, KRasG12C; experiment: KRasG12C mass spectrometry adducting assay; assay type: binding; details: 10 μM test compound, 4 μM GDP loaded KRasG12C, 4 hours
Procedure: KRasG12C Mass Spectrometry Adducting Assay
Enzyme solutions were prepared in assay buffer containing 20 mM HEPES (pH 7.5), 5 mM MgCl2, and 150 mM NaCl. […] The plate was sealed before reading on a Xevo G2 QTOF (Waters) and Acquity LC system (Waters). 10 μl of sample was injected onto a Xbridge BEH300; C4; 3.5 um; 2.1×50 mm column (Waters) running a 3 minute gradient. Blank samples were run in between each test sample.
Data was analysed in Mass Lynx software (Waters), the Total ion count (TIC) trace was used and the eluted protein peak data combined. Using the combined spectrum the data was deconvoluted using MaxEnt1 method. The peak area for apo-protein KRas^G12C (APO) and KRAS+relative cmpd mass (adduct) were measured, and a percentage adduct was calculated using the following calculation: Percent adduct=100*(area of adduct peak/(sum of APO+adduct peaks)

[3] = read-out: KRasG12C functional assay IC50 value
[4] = KRasG12C functional assay IC50 value

SMILES	IC50 (KRasG12C [1]; [3])	IC50 (KRasG12C [1]; [4])	KRasG12C M. S. Binding Mean adduct % (KRasG12C [2])
C=CC(=O)N1CCN2c3ncnc4c(F)c(-c5c(F)ccc6cc[nH]c(=O)c56)c(Cl)c(c34)OC[C@@H]2C1 (single isomer, unassigned) [Example 29]	2860 nM		
C=CC(=O)N1CCN2c3ncnc4c(Cl)c(-c5c(O)cccc5F)c(F)c(c34)OC[C@@H]2C1 (single isomer, unassigned) [Example 45]	89 nM		
C=CC(=O)N1C[C@H]2COc3c(Cl)c(-c4c(C)ccc5cc[nH]c(=O)c45)c(F)c4ncnc(c34)N2C[C@H]1C (single isomer, unassigned) [Example 49]	30000 nM		
C=CC(=O)N1C[C@H]2CCOc3c(Cl)c(-c4c(O)cccc4F)c(F)c4ncnc(c34)N2C[C@H]1C (single isomer, unassigned) [Example 41]		674 nM	
C=CC(=O)N1CCN2c3ncnc4c(F)c(-c5c(F)ccc6cc[nH]c(=O)c56)c(Cl)c(c34)OC[C@@H]2C1 (single isomer, unassigned) [Example 28]	5 nM		92%
C=CC(=O)N1CCN2c3ncnc4c(F)c(-c5c(C)ccc6nc[nH]c(=O)c56)c(Cl)c(c34)OC[C@@H]2C1 (single isomer, unassigned) [Example 6]	98 nM		95%
CN(C)C/C=C/C(=O)N1CCN2c3ncnc4c(F)c(-c5c(O)cccc5F)c(Cl)c(c34)OC[C@@H]2C1 (single isomer, unassigned) [Example 15]	19700 nM		
C=CC(=O)N1CCN2c3ncnc4c(F)c(-c5c(F)ccc6[nH]nnc56)c(Cl)c(c34)OC[C@@H]2C1 (single isomer, unassigned) [Example 27]	12000 nM		
C=CC(=O)N1CCN2c3ncnc4c(F)c(-c5c(C)ccc6[nH]nnc56)c(Cl)c(c34)OC[C@@H]2C1 (single isomer, unassigned) [Example 18]	239 nM		25%
Cc1ccc2[nH]cnc2c1-c1c(Cl)c2c3c(ncnc3c1F)N1C[C@@H](C)N(C(=O)/C=C/CN(C)C)C[C@H]1CO2 (single isomer, unassigned) [Example 50]	140 nM		
C=CC(=O)N1CCN2c3ncnc4c(F)c(-c5c(F)ccc6[nH]ncc56)c(Cl)c(c34)OC[C@@H]2C1 (single isomer, unassigned) [Example 23]	8960 nM		
C=CC(=O)N1CCN2c3ncnc4c(F)c(-c5c(F)ccc6[nH]cnc56)c(Cl)c(c34)OC[C@@H]2C1 (single isomer, unassigned) [Example 21]	1310 nM		
C=CC(=O)N1CCN2c3ncnc4c(F)c(-c5c(F)ccc6c5ncn6C)c(Cl)c(c34)OC[C@@H]2C1 (single isomer, unassigned) [Example 25]	13900 nM		
C=CC(=O)N1CCN2c3ncnc4c(F)c(-c5c(C)ccc6cc[nH]c(=O)c56)c(Cl)c(c34)OC[C@@H]2C1 (single isomer, unassigned) [Example 16]	10 nM		91%
C=CC(=O)N1CCN2c3ncnc4c(F)c(-c5c(C)ccc6[nH]cnc56)c(Cl)c(c34)OC[C@@H]2C1 (single isomer, unassigned) [Example 9]	230 nM		22%
C=CC(=O)N1C[C@H]2COc3c(Cl)c(-c4c(C)ccc5[nH]cnc45)c(F)c4ncnc(c34)N2C[C@H]1C (single isomer, unassigned) [Example 46]	59 nM		
C=CC(=O)N1CCN2c3ncnc4c(F)c(-c5c(C)ccc6c5C(=O)NC6)c(Cl)c(c34)OC[C@@H]2C1 (single isomer, unassigned) [Example 2]	290 nM		25%
C=CC(=O)N1CCN2c3ncnc4c(F)c(-c5c(C)ccc6nc[nH]c(=O)c56)c(Cl)c(c34)OC[C@@H]2C1 (single isomer, unassigned) [Example 7]	7630 nM		

SMILES	IC50 (KRasG12C [1]; [3])	IC50 (KRasG12C [1]; [4])	KRasG12C M. S. Binding Mean adduct % (KRasG12C [2])
C=CC(=O)N1C[C@@H]2CCOc3c(Cl)c(-c4c(O)cccc4F)c(F)c4ncnc(c34)N2C[C@@H]1C (single isomer, unassigned) [Example 42]		111 nM	95.528%
C=CC(=O)N1C[C@H]2COc3c(Cl)c(-c4c(C)ccc5[nH]cnc45)c(F)c4ncnc(c34)N2C[C@H]1C (single isomer, unassigned) [Example 47]	11200 nM		
C=CC(=O)N1CCN2c3ncnc4c(F)c(-c5c(C)ccc6[nH]nnc56)c(Cl)c(c34)OC[C@@H]2C1 (single isomer, unassigned) [Example 19]	24 nM		94%
C=CC(=O)N1CCN2c3ncnc4c(F)c(-c5cccc6cc[nH]c(=O)c56)c(Cl)c(c34)OC[C@@H]2C1 [Example 10, 8-[(8aS)-6-Chloro-4-fluoro-10-(prop-2-enoyl)-8,8a,9,10,11,12-hexahydropyrazino[2′,1′:3,4][1,4]oxazepino[5,6,7-de]quinazolin-5-yl]isoquinolin-1(2H)-one]	68 nM		94%
C=CC(=O)N1CCN2c3ncnc4c(F)c(-c5c(C)ccc6cc[nH]c(=O)c56)c(Cl)c(c34)OCCC2C1 (single isomer, unassigned) [Example 35, 8-[3-Chloro-1-fluoro-8-(prop-2-enoyl)-6,6a,7,8,9,10-hexahydro-5H-pyrazino[1′,2′:5,6][1,5]oxazocino[4,3,2-de]quinazolin-2-yl]-7-methylisoquinolin-1(2H)-one]	8510 nM		
C=CC(=O)N1CCN2c3ncnc4c(F)c(-c5c(C)ccc6cc[nH]c(=O)c56)c(Cl)c(c34)OCCC2C1 (single isomer, unassigned) [Example 34, 8-[3-Chloro-1-fluoro-8-(prop-2-enoyl)-6,6a,7,8,9,10-hexahydro-5H-pyrazino[1′,2′:5,6][1,5]oxazocino[4,3,2-de]quinazolin-2-yl]-7-methylisoquinolin-1(2H)-one]	1210 nM		
C=CC(=O)N1C[C@H]2CCOc3c(Cl)c(-c4c(O)cccc4F)c(F)c4ncnc(c34)N2C[C@@H]1C (single isomer, unassigned) [Example 32]		3130 nM	
Cc1ccc2[nH]cnc2c1-c1c(Cl)c2c3c(ncnc3c1F)N1C[C@@H](C)N(C(=O)/C=C/CN(C)C)C[C@H]1CO2 (single isomer, unassigned) [Example 51]	1750 nM		
C=CC(=O)N1C[C@H]2CCOc3c(Cl)c(-c4c(O)cccc4F)c(F)c4ncnc(c34)N2C[C@H]1C (single isomer, unassigned) [Example 40]		2540 nM	
C=CC(=O)N1C[C@@H]2CCOc3c(Cl)c(-c4c(O)cccc4F)c(F)c4ncnc(c34)N2C[C@H]1C (single isomer, unassigned) [Example 38]		3650 nM	
Cc1ccc2[nH]ncc2c1-c1c(Cl)c2c3c(ncnc3c1F)N1CCN(C(=O)/C=C/CN(C)C)C[C@H]1CO2 (single isomer, unassigned) [Example 31]	6830 nM		
C=CC(=O)N1C[C@@H]2CCOc3c(Cl)c(-c4c(O)cccc4F)c(F)c4ncnc(c34)N2C[C@@H]1C (single isomer, unassigned) [Example 43]		2900 nM	
C=CC(=O)N1C[C@H]2CCOc3c(Cl)c(-c4c(O)cccc4F)c(F)c4ncnc(c34)N2C[C@@H]1C (single isomer, unassigned) [Example 33]		229 nM	
C=CC(=O)N1C[C@H]2COc3c(Cl)c(-c4c(C)ccc5cc[nH]c(=O)c45)c(F)c4ncnc(c34)N2C[C@H]1C (single isomer, unassigned) [Example 48]	46 nM		
C=CC(=O)N1CCN2c3ncnc4c(Cl)c(-c5c(O)cccc5F)c(F)c(c34)OC[C@@H]2C1 (single isomer, unassigned) [Example 44]	62 nM		
C=CC(=O)N1CCN2c3ncnc4c(F)c(-c5c(C)ccc6cc[nH]c(=O)c56)c(Cl)c(c34)OCCC2C1 (single isomer, unassigned) [Example 36, 8-[3-Chloro-1-fluoro-8-(prop-2-enoyl)-6,6a,7,8,9,10-hexahydro-5H-pyrazino[1′,2′:5,6][1,5]oxazocino[4,3,2-de]quinazolin-2-yl]-7-methylisoquinolin-1(2H)-one]	2 nM		
C=CC(=O)N1CCN2c3ncnc4c(F)c(-c5c(C)cccc5O)c(Cl)c(c34)OC[C@@H]2C1 (single isomer, unassigned) [Example 13]	9700 nM		
C=CC(=O)N1CCN2c3ncnc4c(F)c(-c5c(C)ccc6cc[nH]c(=O)c56)c(Cl)c(c34)OCCC2C1 (single isomer, unassigned) [Example 37, 8-[3-Chloro-1-fluoro-8-(prop-2-enoyl)-6,6a,7,8,9,10-hexahydro-5H-pyrazino[1′,2′:5,6][1,5]oxazocino[4,3,2-de]quinazolin-2-yl]-7-methylisoquinolin-1(2H)-one]	180 nM		
